Measured values as given in patent publication US20250313537A1, “BENZ[…] AND METHODS OF USE IN TREATING CANCER” (University of Cincinnati, priority 2022, published 2025).
Entries after “also recorded” stand apart in the source; their conditions may differ.

Tests used:
H1792 cells = assay: In vitro viability assay (Cell Titer 96 Aqueous One), H1792; assay type: cell-based, human; settings: H1792 cells (FIG. 6, 7A, 7B)
Experimental: (§1) Cell lines tested were purchased from the American Type Culture Collection (ATCC). Cells were maintained in Dulbecco's Modified Eagle's Medium (DMEM) (Corning) or Roswell Park Memorial Institute (RPMI) 1640 Medium (Gibco). Media for lines was supplemented with 10% (v/v) Fetal Bovine Serum (FBS) (Corning) and 100 U/mL penicillin/streptomycin (Sigma). Lines were grown at 37° C. with 5% (v/v) CO2. Cells were passaged twice a week at 1:10 ratio and reached 80 to 90% confluency between 72 and 96 hours.
(§2) For in vitro studies drug was solubilized in dimethyl sulfoxide (DMSO, 0.125%) prior to use. For mouse studies drug was solubilized in a co-solvent formulation: propylene glycol (40%); ethanol (10%); benzyl alcohol (2%); benzoic acid (2%); sodium benzoate (2%).
(§3) For cell proliferation viability studies, cells were assayed using the Cell Titer 96® Aqueous One Solution Assay (Promega). IC50 values were determined using the ‘[Inhibitor] versus normalized response’ nonlinear regression function and the log of inhibitor concentration in Prism 8 software (version 8.3.0 for MacOS).

GABAA receptors = assay: Single-cell patch-clamp electrophysiology in H1792 cells; assay type: cell-based, human; settings: 1 μM GABA + 4 μM QH-II-066
Source text: Recording solutions were purchased from Nanion Technologies.

[1] = tested on: LC3B- and NIX-positive puncta in H1792 cells; assay: Confocal immunofluorescence of autophagosome puncta; assay type: cell-based, human; settings: H1792, relative to DMSO control
Experimental: Cells were seeded on sterile glass cover slips and grown overnight at 37° C. Cells were then rinsed with cold PBS and fixed in 4% paraformaldehyde (30 min, room temperature). Fixed cells were rinsed in PBS (3×5 min at room-temperature), and permeabilized (15 min in PBS containing 0.1% Triton X-100). Cells were washed in PBS (3× for 5 min at room-temperature) and incubated with blocking buffer (PBS containing 0.3% Triton X-100 and 3% BSA) for 1 hr at room-temperature with gentle shaking. Blocking solution was aspirated, cells washed with ice-cold PBS, and incubated overnight with primary Ab (LC3B or NIX) diluted 1:200 in sterile 0.5% BSA in PBS at 4° C. on the cover slip placed on a glass slide kept inside a humidified 10 cm dish with gentle shaking 60. Cells were washed (3× for 5 min in PBS) and incubated with fluorophore conjugated secondary Ab goat anti-rabbit Alexa Fluor 594 (Abcam) in 2% normal donkey serum at room-temperature for 1 hr in dark. Cells were washed (3× for 5 min in PBS) under low light and mounted on a glass slide in […] Antifade Mounting Medium with DAPI (Vector Laboratories). The following Abs were used (1:200 dilution): rabbit anti-human LC3B (Cell Signaling Technology) and rabbit NIX (Cell Signaling Technology). Slides were imaged on a Zeiss LSM 710 laser scanning confocal microscope and analyzed using NIH Fiji ImageJ2 (version 1.53c).

GABARAP = assay: Western blot of GABARAP in H1792 cells; assay type: cell-based, human
Experimental: DNA was sheared by sonication. Lysates were kept on ice for 30 min, centrifuged 10 min (13,500×g, 4° C.), and protein concentration of supernatant determined by a Bradford assay (Protein Assay Dye Reagent, Bio-Rad). Lysates were mixed 1:1 with 2× Laemmli sample buffer containing β-mercaptoethanol and heated 5 min at 95° C. Protein was resolved by SDS-PAGE using 4-20% gradient polyacrylamide gels (Bio-Rad), then transferred to nitrocellulose membranes (Bio-Rad) for 2 hr at 100 V in tris-glycine transfer buffer containing 20% methanol. Membranes were blocked at room-temperature in 5% 1×TBST blocking buffer (TBS with 0.1% Tween-20 and 5% non-fat dry milk) for 1 hr with gentle agitation, followed by overnight incubation with primary Ab and gentle shaking at 4° C. The primary Abs were diluted as follows: GAPDH (1:1000, Cell Signaling Technology); GABARAP (1:1000, Cell Signaling Technology); NIX (1:1000, Cell Signaling Technology). Immunodetection was performed with anti-rabbit horseradish-peroxidase-conjugated secondary antibody (1:10000, Cell Signaling Technology). Post-primary Ab incubation, membranes were washed (3× for 10 min in TBST at room-temperature), probed with rabbit HRP tagged secondary antibody (1:3000, Cell Signaling Technology), and processed for chemiluminescence detection using ECL kit (Thermo Scientific). […]

NIX = assay: Western blot of NIX in H1792 cells; assay type: cell-based, human
Experimental: DNA was sheared by sonication. Lysates were kept on ice for 30 min, centrifuged 10 min (13,500×g, 4° C.), and protein concentration of supernatant determined by a Bradford assay (Protein Assay Dye Reagent, Bio-Rad). Lysates were mixed 1:1 with 2× Laemmli sample buffer containing β-mercaptoethanol and heated 5 min at 95° C. Protein was resolved by SDS-PAGE using 4-20% gradient polyacrylamide gels (Bio-Rad), then transferred to nitrocellulose membranes (Bio-Rad) for 2 hr at 100 V in tris-glycine transfer buffer containing 20% methanol. Membranes were blocked at room-temperature in 5% 1×TBST blocking buffer (TBS with 0.1% Tween-20 and 5% non-fat dry milk) for 1 hr with gentle agitation, followed by overnight incubation with primary Ab and gentle shaking at 4° C. The primary Abs were diluted as follows: GAPDH (1:1000, Cell Signaling Technology); GABARAP (1:1000, Cell Signaling Technology); NIX (1:1000, Cell Signaling Technology). Immunodetection was performed with anti-rabbit horseradish-peroxidase-conjugated secondary antibody (1:10000, Cell Signaling Technology). Post-primary Ab incubation, membranes were washed (3× for 10 min in TBST at room-temperature), probed with rabbit HRP tagged secondary antibody (1:3000, Cell Signaling Technology), and processed for chemiluminescence detection using ECL kit (Thermo Scientific). Chemiluminescence images were acquired using ChemiDoc Touch Imaging System (Bio-Rad).

[2] = tested on: Lewis Lung Carcinoma cells; assay: Mitochondrial depolarization, TMRE binding by FACS; assay type: cell-based, mouse; settings: for TMRE binding (depolarization): Lewis Lung Carcinoma cells, FACS, within 15 minutes of incubation; for shift in electric charge distribution / depolarization of cancer cells: different/disparate cancer cell types
[3] = tested on: cancer cell lines A375, H1792, LN18, LLC; assay: In vitro viability assay (Cell Titer 96 Aqueous One), cancer cell lines; assay type: cell-based, human, mouse; settings: for cytotoxicity of NOR-variant relative to non-NOR-variant: SRE-III-35 vs TA-IV-74, TA-II-59 vs TA-II-73
Experimental: as §1, §2, §3

[4] = tested on: Lewis Lung Carcinoma (LLC) tumors; assay: Bilateral flank LLC tumor growth delay in C57Bl6 mice; assay type: in vivo, mouse
Source text: as §2
For subcutaneous xenograft tumor growth delay experiments, black 6 mice (C57Bl6) were purchased (Charles River Laboratories) and housed at University of Cincinnati LAMS. Purchased mice were allowed to accommodate for a week prior to experiment. Mice were housed in pathogen-free rooms and clinical health evaluated weekly by veterinary staff of the University of Cincinnati LAMS. All animal studies were conducted in accordance with approval of a University of Cincinnati IACUC.
LLC1 cells (a million) grown in RPMI medium were washed in cold PBS and mixed with Matrigel 25%, then injected subcutaneously into left and right flanks above the hind limbs of 6 to 8-week-old mice. When subcutaneous tumors were palpable (˜100 mm^3 in size) the following treatments groups were initiated: (1) vehicle (2) drug. In mice receiving vehicle alone, the vehicle was injected i.p for 7 days. In mice receiving drug, drug (2.5 mg/kg body weight) was injected i.p. for 7 days. Following end of treatment, tumor volume were taken for growth delay studies. Mouse tumors were measured by Vernier calipers. Tumor volume was calculated using the formula: 4/3π×(l×h2), where: l and h are radii of the tumor taken perpendicular to each other. Tumor size was measured three times a week using a caliper.

[5] = 2.5 mg/kg i.p. for seven consecutive days

C#Cc1ccc2c(c1)C(c1ccccc1F)=NC(O)C(=O)N2 (stereo not drawn) [MYM-I-59, 7-ethynyl-5-(2-fluorophenyl)-3-hydroxy-1,3-dihydro-2H-benzo[e][1,4]diazepin-2-one]
cytotoxicity (activity) (H1792 cells): poorly or inactive

C#Cc1ccc2c(c1)C(c1ccccc1)=NCC(=O)N2C [QH-II-066]
current response to GABA plus compound over GABA alone (GABAA receptors): enhanced response; also recorded: enhances the current signal | LC3B-positive puncta [1]: increased puncta | NIX-positive puncta [1]: increased puncta | GABARAP dimerization (GABARAP; H1792, 72 hours): dimerize | GABARAP protein level (GABARAP; H1792, 72 hours post-treatment): pronounced accumulation | dose dependence of induced NIX dimerization (NIX; H1792): dose-dependent | NIX dimerization (NIX; H1792, 72 hours): dimerize | NIX protein level (NIX; H1792, 72 hours post-treatment): pronounced accumulation

O=C1CN=C(c2ccccc2)c2cc(C3CC3)ccc2N1 [SRE-III-35, 7-cyclopropyl-5-phenyl-1,3-dihydro-2H-benzo[e][1,4]diazepin-2-one]
TMRE binding (depolarization) [2]: reduced TMRE binding | shift in electric charge distribution / depolarization of cancer cells [2]: depolarizing | cytotoxicity of NOR-variant relative to non-NOR-variant [3]: 2 fold | potency relative to TA-II-59 ([3]; cytotoxicity): equally as potent | tumor control relative to vehicle mice [4, 5]: significant tumor control

O=C1CN=C(c2ccccc2F)c2cc(C3CC3)ccc2N1 [SRE-III-43, 7-cyclopropyl-5-(2-fluorophenyl)-1,3-dihydro-2H-benzo[e][1,4]diazepin-2-one]
TMRE binding (depolarization) [2]: reduced TMRE binding | shift in electric charge distribution / depolarization of cancer cells [2]: depolarizing

C#Cc1ccc2c(c1)C(c1ccccc1C)=NCC(=O)N2 [TA-II-59, 7-ethynyl-5-(o-tolyl)-1,3-dihydro-2H-benzo[e][1,4]diazepin-2-one]
TMRE binding (depolarization) [2]: reduced TMRE binding | shift in electric charge distribution / depolarization of cancer cells [2]: depolarizing | cytotoxicity to cancer cells ([3]; LN18, H1792, A375, LLC1): most potent | cytotoxicity of NOR-variant relative to non-NOR-variant [3]: 2 fold | potency relative to QH-II-066 ([3]; cytotoxicity): an order of magnitude more potent | tumor control relative to vehicle mice [4, 5]: significant tumor control

C#Cc1ccc2c(c1)C(c1ccccc1F)=NCC(=S)N2C [TA-III-50, 7-ethynyl-5-(2-fluorophenyl)-1-methyl-1,3-dihydro-2H-benzo[e][1,4]diazepine-2-thione]
cytotoxicity (activity) (H1792 cells): poorly or inactive

C#Cc1ccc2c(c1)C(c1ccccc1)=NCC(=S)N2C [TA-III-52, 7-ethynyl-1-methyl-5-phenyl-1,3-dihydro-2H-benzo[e][1,4]diazepine-2-thione]
cytotoxicity (activity) (H1792 cells): poorly or inactive

O=C1CN=C(c2ccccc2)c2cc(Br)cc(Br)c2N1 [TA-III-56, 7,9-dibromo-5-phenyl-1,3-dihydro-2H-benzo[e][1,4]diazepin-2-one]
cytotoxicity (activity) (H1792 cells): poorly or inactive

C#Cc1cc(C#C)c2c(c1)C(c1ccccc1)=NCC(=O)N2C [TA-III-62, 7,9-diethynyl-1-methyl-5-phenyl-1,3-dihydro-2H-benzo[e][1,4]diazepin-2-one]
cytotoxicity (activity) (H1792 cells): poorly or inactive

C#Cc1ccc2c(c1)C(c1ccccc1)=NC(O)C(=O)N2C (stereo not drawn) [TA-III-70, 7-ethynyl-3-hydroxy-1-methyl-5-phenyl-1,3-dihydro-2H-benzo[e][1,4]diazepin-2-one]
cytotoxicity (activity) (H1792 cells): poorly or inactive

CN1C(=O)CN=C(c2ccccc2)c2cc(C3CC3)ccc21 [TA-IV-74, 7-cyclopropyl-1-methyl-5-phenyl-1,3-dihydro-2H-benzo[e][1,4]diazepin-2-one]
effect compared with the other compounds tested [4, 5]: most significant effect; also recorded: most effective | tumor control relative to vehicle mice [4, 5]: significant tumor control | tumor volume ([4]; at 25 days, 2.5 mg/kg i.p. for seven days): no increase in tumor volume
